# Test results taken from patent publication US20230180758A1, “SUBSTITUTED PYRROLINE-2-ONES AND THEIR USE AS HERBICIDES” (Bayer Aktiengesellschaft, priority 2020, published 2023).
# Assays:
# Type in all cases: in vivo
# Digitaria sanguinalis = experiment: Post-emergence herbicidal effect against DIGSA; conditions: visual assessment after about 3 weeks, 100% = plants have died
# Experimental: (§1) 1. Post-Emergence Herbicidal Effect and Crop Plant Compatibility
# (§2) Seeds of monocotyledonous and dicotyledonous weed and crop plants are laid out in sandy loam soil in wood-fibre pots, covered with soil and cultivated in a greenhouse under good growth conditions. 2 to 3 weeks after sowing, the test plants are treated at the one-leaf stage. The compounds of the invention, formulated in the form of wettable powders (WP) or as emulsion concentrates (EC), are then sprayed onto the green parts of the plants as aqueous suspension or emulsion at a water application rate equating to 600 to 800 l/ha with addition of 0.2% wetting agent. After the test plants have been left to stand in the greenhouse under optimal growth conditions for about 3 weeks, the action of the preparations is assessed visually in comparison to untreated controls (herbicidal action in percent (%): 100% activity=the plants have died, 0% activity=like control plants).
# Alopecurus myosuroides [1] = experiment: Post-emergence herbicidal effect against ALOMY; conditions: visual assessment after about 3 weeks, 100% = plants have died
# Experimental: as §1, §2
# Setaria viridis = experiment: Post-emergence herbicidal effect against SETVI; conditions: visual assessment after about 3 weeks
# Experimental: as §1, §2
# Hordeum murinum = experiment: Post-emergence herbicidal effect against HORMU; conditions: 80 g/ha, visual assessment after about 3 weeks
# Experimental: as §1, §2
# Avena fatua [2] = experiment: Post-emergence herbicidal effect against AVEFA; conditions: 80 g/ha, visual assessment after about 3 weeks, 100% = plants have died
# Experimental: as §1, §2
# Echinochloa crus-galli [3] = experiment: Post-emergence herbicidal effect against ECHCG; conditions: visual assessment after about 3 weeks
# Experimental: as §1, §2
# Lolium rigidum [4] = experiment: Post-emergence herbicidal effect against LOLRI; conditions: 80 g/ha, visual assessment after about 3 weeks
# Experimental: as §1, §2
# Echinochloa crus-galli [5] = experiment: Pre-emergence herbicidal effect against ECHCG; conditions: 320 g/ha, scored visually after 3 weeks
# Source text: (§3) 2. Pre-Emergence Herbicidal Effect and Crop Plant Compatibility
# (§4) Seeds of monocotyledonous and dicotyledonous weed plants and crop plants are laid out in sandy loam soil in wood-fibre pots and covered with soil. The compounds of the invention, formulated in the form of wettable powders (WP) or as emulsion concentrates (EC), are then applied to the surface of the covering soil as aqueous suspension or emulsion at a water application rate equating to 600 to 800 L/ha with addition of 0.2% wetting agent.
# (§5) After the treatment, the pots are placed in a greenhouse and kept under good growth conditions for the trial plants. The damage to the test plants is scored visually after a test period of 3 weeks by comparison with untreated controls (herbicidal activity in percent (%): 100% activity=the plants have died, 0% activity=like control plants).
# Avena fatua [6] = experiment: Pre-emergence herbicidal effect against AVEFA; conditions: 320 g/ha, scored visually after 3 weeks
# Source text: as §3, §4, §5
# Alopecurus myosuroides [7] = experiment: Pre-emergence herbicidal effect against ALOMY; conditions: 320 g/ha, scored visually after 3 weeks
# Source text: as §3, §4, §5
# Lolium rigidum [8] = experiment: Pre-emergence herbicidal effect against LOLRI; conditions: scored visually after 3 weeks
# Source text: as §3, §4, §5
SMILES,Post-emergence action against DIGSA (Digitaria sanguinalis; 20 g/ha) [%],Post-emergence action against DIGSA (Digitaria sanguinalis; 80 g/ha) [%],Post-emergence action against ALOMY (Alopecurus myosuroides [1]; 20 g/ha) [%],Post-emergence action against ALOMY (Alopecurus myosuroides [1]; 80 g/ha) [%],Post-emergence action against SETVI (Setaria viridis; 20 g/ha) [%],Post-emergence action against SETVI (Setaria viridis; 80 g/ha) [%],Post-emergence action against HORMU (Hordeum murinum) [%],Post-emergence action against AVEFA (Avena fatua [2]) [%],Post-emergence action against ECHCG (Echinochloa crus-galli [3]; 80 g/ha) [%],Post-emergence action against LOLRI (Lolium rigidum [4]) [%],Pre-emergence action against ECHCG (Echinochloa crus-galli [5]) [%],Pre-emergence action against AVEFA (Avena fatua [6]) [%],Pre-emergence action against ALOMY (Alopecurus myosuroides [7]) [%],Post-emergence action against ECHCG (Echinochloa crus-galli [3]; 20 g/ha) [%],Pre-emergence action against LOLRI (Lolium rigidum [8]; 80 g/ha) [%],Pre-emergence action against LOLRI (Lolium rigidum [8]; 320 g/ha) [%]
COc1cc(C)cc(C)c1C1=C(O)C2(COC3(CCOCC3)OC2)NC1=O [Example 1-1],100,100,100,100,100,100,100,100,100,100,,,,,,
"COc1cc(Cl)cc(C)c1C1=C(O)C2(COC3(CCOCC3)OC2)NC1=O [Example 1-4, 3-(4-chloro-2-methoxy-6-methylphenyl)-4-hydroxy-7,11,14-trioxa-1-azadispiro[4.2.5^8.2^5]pentadec-3-en-2-one]",80,80,90,100,80,90,,100,80,100,,,,,,
COc1cc(C)cc(C)c1C1=C([O-])C2(COC3(CCOCC3)OC2)NC1=O.[Na+] [Example 2-1],90,90,90,100,90,90,90,100,100,100,,,,,,
"COc1cc(Cl)cc(C)c1C1=C(O)C2(COC3(CCOCC3)OC2)NC1=O [Example 2-4, sodium 3-(4-chloro-2-methoxy-6-methylphenyl)-2-oxo-7,11,14-trioxa-1-azadispiro[4.2.5^8.2^5]pentadec-3-en-4-olate]",90,90,80,100,80,80,,100,80,90,,,,,,
CCC(=O)OC1=C(c2c(C)cc(C)cc2OC)C(=O)NC12COC1(CCOCC1)OC2 [Example 3-1],90,100,90,100,80,90,90,90,100,100,,,,,,
"CCC(=O)OC1=C(c2c(C)cc(Cl)cc2OC)C(=O)NC12COC1(CCOCC1)OC2 [Example 3-4, 3-(4-chloro-2-methoxy-6-methylphenyl)-2-oxo-7,11,14-trioxa-1-azadispiro[4.2.5^8.2^5]pentadec-3-en-4-yl propionate]",100,100,90,100,80,90,,100,100,100,,,,,,
CCOC(=O)OC1=C(c2c(C)cc(C)cc2OC)C(=O)NC12COC1(CCOCC1)OC2 [Example 4-1],90,90,100,100,90,100,100,100,100,100,,,,,,
"CCOC(=O)OC1=C(c2c(C)cc(Cl)cc2OC)C(=O)NC12COC1(CCOCC1)OC2 [Example 4-4, 3-(4-chloro-2-methoxy-6-methylphenyl)-2-oxo-7,11,14-trioxa-1-azadispiro[4.2.5^8.2^5]pentadec-3-en-4-yl ethyl carbonate]",90,90,90,100,80,90,,80,100,90,,,,,,
COc1cc(C)cc(C)c1C1=C(O)C2(COC3(CCOCC3)OC2)N(C)C1=O [Example 5-1],,,80,90,90,90,,,100,90,100,100,90,100,100,100
COc1cc(C)cc(C)c1C1=C([O-])C2(COC3(CCOCC3)OC2)N(C)C1=O.[Na+] [Example 6-1],,,,90,90,90,,,100,90,100,90,100,90,100,100
CCOC(=O)OC1=C(c2c(C)cc(C)cc2OC)C(=O)N(C)C12COC1(CCOCC1)OC2 [Example 8-1],,,,,80,100,,,90,90,100,100,100,80,100,100
